Assay results from US20240208901A1, “Deuterated 3,3'-Diselenodipropionic Acid (DSePA) and Its Use as an Anticancer or Radioprotective Agent” (Secretary, Department of Atomic Energy, priority 2022, published 2024).

How the values were obtained:
[1] = tested on: A549 cells; assay: MTT assay, anti-proliferative effect in A549 cells; format: cell-based, human; conditions: Homo sapiens, 48 h treatment, read-out: IC50 to inhibit cell proliferation
Description: (§1) Therefore, D-DSePA was compared with un-deuterated DSePA for its anticancer activity in A549, H1975 and H3122 cell lines which are representative of NSCLC. For this, above cells were treated with the varying concentrations (0.1-100 μM) of DSePA/D-DSePA for 48 h and the cell viability was determined by MTT assay (FIG. 9A-C). The plot of percent (%) cytotoxicity (100-% viability) versus the concentration of DSePA/D-DSePA was used to estimate the half maximum concentration (IC50) of above compounds to inhibit the proliferation of cells. […] Employing these values, the therapeutic index (IC50 in normal lung cell/IC50 in lung cancer cell) of DSePA and D-DSePA in different pairs of normal versus cancerous cells (viz., A549/WI-38, A549/WI-26 VA4, H1975/WI-38, H1975/WI-26 VA4, H3122/WI-38 and H3122/WI-26 VA4) was calculated (Table-3). […]
(§2) MTT Assay—To evaluate the anti-proliferative effect of D-DScPA and DScPA, Cells (˜5×10^3) suspended in 100 μl of complete culture medium were seeded in each well of 96 well plates. […] The percentage (%) cytotoxicity was calculated from the decrease in absorbance at 570 nm of treated groups as compared to that of control group. […] The therapeutic index was calculated by normalizing the IC50 concentration of D-DSePA/DSePA in non-cancerous cells to that in cancerous cells.

[2] = tested on: WI-26 VA4 cells; assay: MTT assay, toxicity in non-cancerous lung fibroblast WI-26 VA4 cells; format: cell-based, human; conditions: Homo sapiens, WI26VA4, 48 h post treatment, read-out: IC50 for inhibiting the cell proliferation
Description: as §1, with “For this, above cells were treated with the varying concentrations (0.1-100 μM) of DSePA/D-DSePA for 48 h and the cell viability was determined by MTT assay (FIG. 9A-C).” left out, “cells. […] Similarly, the toxicity of DSePA/D-DSePA was studied in non-cancerous lung fibroblast cells, WI-38 and WI-26 VA4 in the concentration range of 0.1 to 1000 μM at 48 h post treatment by MTT assay (FIG. 9D and 9E).” for “cells.”
as §2

[3] = tested on: lung cancer cell lines (A549, H1975 and H3122) versus normal lung cells (WI-38 and WI-26 VA4); assay: Therapeutic index by MTT assay, lung cancer cell lines versus normal lung cells; format: cell-based, human; conditions: for Therapeutic Index (IC50 in normal cell / IC50 in cancer cells): 48 h post-treatment
Description: Therefore, D-DSePA was compared with un-deuterated DSePA for its anticancer activity in A549, H1975 and H3122 cell lines which are representative of NSCLC. For this, above cells were treated with the varying concentrations (0.1-100 μM) of DSePA/D-DSePA for 48 h and the cell viability was determined by MTT assay (FIG. 9A-C). The plot of percent (%) cytotoxicity (100-% viability) versus the concentration of DSePA/D-DSePA was used to estimate the half maximum concentration (IC50) of above compounds to inhibit the proliferation of cells. […] Similarly, the toxicity of DSePA/D-DSePA was studied in non-cancerous lung fibroblast cells, WI-38 and WI-26 VA4 in the concentration range of 0.1 to 1000 μM at 48 h post treatment by MTT assay (FIG. 9D and 9E). […] Employing these values, the therapeutic index (IC50 in normal lung cell/IC50 in lung cancer cell) of DSePA and D-DSePA in different pairs of normal versus cancerous cells (viz., A549/WI-38, A549/WI-26 VA4, H1975/WI-38, H1975/WI-26 VA4, H3122/WI-38 and H3122/WI-26 VA4) was calculated (Table-3). […] The average therapeutic index of DSePA and D-DSePA estimated from above study was 11.05±1.5 and 78.7±29.2 respectively (FIG. 10).
MTT Assay—To evaluate the anti-proliferative effect of D-DScPA and DScPA, Cells (˜5×10^3) suspended in 100 μl of complete culture medium were seeded in each well of 96 well plates. The cells were allowed to attach and grow for 24 h, treated with desired concentrations of D-DSePA/DScPA dissolved in culture medium for 48 h and then processed for MTT assay as described in literature. The percentage (%) cytotoxicity was calculated from the decrease in absorbance at 570 nm of treated groups as compared to that of control group. The % cytotoxicity was plotted as a function of the concentration of D-DSePA and DSePA and from this curve, the concentration of D-DSePA/DScPA causing 50% toxicity (IC50) was estimated. The therapeutic index was calculated by normalizing the IC50 concentration of D-DSePA/DSePA in non-cancerous cells to that in cancerous cells.

[4] = tested on: human NSCLC cells such as A549, H1975 and H3122; assay: MTT assay, human NSCLC cells (summary statement); format: cell-based; conditions: read-out: half maximum concentration (IC50) for growth inhibition
Description: 3,3′-Disclenodipropionic acid-D8 (D-DSePA, chemical structure shown in FIG. 1) was synthesized by reacting freshly prepared sodium selenide (Na2Se2) and 3-bromopropionic acid-D4 in D2O solvent with 42% yield. The synthesized D-DSePA was purified and characterized by NMR spectroscopy and mass spectrometry. The molecular structure of D-DSePA has been established by single-crystal X-ray diffraction analysis. The treatment of D-DSePA and un-deuterated DSePA inhibited the growth of human NSCLC cells such as A549, H1975 and H3122 with half maximum concentration (IC50) in the range of 5-50 μM by MTT assay. […] Finally, at identical treatment concentration, D-DSePA offered better radioprotection to non-cancerous WI38 cells with a dose modification factor (DMF) of 1.16±0.05 as compared to un-deuterated DScPA with DMF of 1.12±0.03.
as §2

O=C(O)CC[Se][Se]CCC(=O)O [DSePA, 3,3′-diselenodipropionic acid]
IC50 [1]: 15.2 ± 1 µM
IC50 [2]: 151 ± 3.3 µM
Therapeutic Index (IC50 in normal cell / IC50 in cancer cells) ([3]; A549/WI-26 VA4, MTT assay): 9.9 ± 0.5
Therapeutic Index (IC50 in normal cell / IC50 in cancer cells) ([3]; A549/WI-38, MTT assay): 11.2 ± 0.6
Therapeutic Index (IC50 in normal cell / IC50 in cancer cells) ([3]; H1975/WI-26 VA4, MTT assay): 14.2 ± 0.7
Therapeutic Index (IC50 in normal cell / IC50 in cancer cells) ([3]; H1975/WI-38, MTT assay): 16.1 ± 0.8
Therapeutic Index (IC50 in normal cell / IC50 in cancer cells) ([3]; H3122/WI-26 VA4, MTT assay): 7.0 ± 0.4
Therapeutic Index (IC50 in normal cell / IC50 in cancer cells) ([3]; H3122/WI-38, MTT assay): 7.9 ± 0.4
average therapeutic index ([3]; mean of six normal/cancer cell pairs, mean±SEM (n=6), MTT assay): 11.05±1.5
IC50 [4]: 5 to 50 µM
